Measured values from US8143244B2, “Cyclopropyl fused indolobenzazepine HCV NS5B inhibitors” (Bristol-Myers Squibb Company, priority 2009, dated 2012).
Where two headings read alike, the source gives them in different places.

Tests used:
HCV NS5B = target: T1, HCV NS5B (Hepatitis C virus genotype 1b, UniProt Q9WMX2); assay: HCV NS5B RdRp enzyme assay; format: biochemical; details: HCV NS5B RdRp genotype 1b
T1 construct: The protein was expressed with an 18 amino acid C-terminal truncation to enhance the solubility; made in house; host or cells: E. coli BL21(DE3)
T1 sequence (Q9WMX2 2420-2992): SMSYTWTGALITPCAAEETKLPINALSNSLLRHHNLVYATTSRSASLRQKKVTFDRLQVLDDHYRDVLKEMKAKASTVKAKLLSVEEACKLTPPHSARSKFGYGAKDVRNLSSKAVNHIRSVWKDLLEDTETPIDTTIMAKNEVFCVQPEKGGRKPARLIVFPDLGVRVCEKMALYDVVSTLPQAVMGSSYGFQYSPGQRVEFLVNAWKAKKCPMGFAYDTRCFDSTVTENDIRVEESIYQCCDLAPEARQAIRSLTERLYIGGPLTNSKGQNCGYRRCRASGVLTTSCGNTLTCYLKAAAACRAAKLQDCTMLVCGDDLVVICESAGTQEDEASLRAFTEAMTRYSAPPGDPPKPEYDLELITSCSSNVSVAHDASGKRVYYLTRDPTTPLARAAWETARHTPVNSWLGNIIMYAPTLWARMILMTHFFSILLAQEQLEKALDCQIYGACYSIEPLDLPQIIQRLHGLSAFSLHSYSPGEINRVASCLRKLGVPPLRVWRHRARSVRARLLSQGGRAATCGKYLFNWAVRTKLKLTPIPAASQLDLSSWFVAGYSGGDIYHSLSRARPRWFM
Procedure: HCV NS5B RdRp cloning, expression, and purification. The cDNA encoding the NS5B protein of HCV, genotype 1b, was cloned into the pET21a expression vector. The protein was expressed with an 18 amino acid C-terminal truncation to enhance the solubility. The E. coli competent cell line BL21(DE3) was used for expression of the protein. Cultures were grown at 37° C. for ˜4 hours until the cultures reached an optical density of 2.0 at 600 nm. The cultures were cooled to 20° C. and induced with 1 mM IPTG. Fresh ampicillin was added to a final concentration of 50 μg/ml and the cells were grown overnight at 20° C.
Cell pellets (3L) were lysed for purification to yield 15-24 mgs of purified NS5B. The lysis buffer consisted of 20 mM Tris-HCl, pH 7.4, 500 mM NaCl, 0.5% triton X-100, 1 mM DTT, 1 mM EDTA, 20% glycerol, 0.5 mg/ml lysozyme, 10 mM MgCl2, 15 ug/ml deoxyribonuclease I, and Complete TM protease inhibitor tablets (Roche). After addition of the lysis buffer, frozen cell pellets were resuspended using a tissue homogenizer. To reduce the viscosity of the sample, aliquots of the lysate were sonicated on ice using a microtip attached to a Branson sonicator. The sonicated lysate was centrifuged at 100,000×g for 1 hr at 4° C. and filtered through a 0.2 μm filter unit (Corning).
The protein was purified using three sequential chromatography steps: Heparin sepharose CL-6B, polyU sepharose 4B, and Hitrap SP sepharose (Pharmacia). The chromatography buffers were identical to the lysis buffer but contained no lysozyme, deoxyribonuclease I, MgCl2 or protease inhibitor and the NaCl concentration of the buffer was adjusted according to the requirements for charging the protein onto the column. Each column was eluted with a NaCl gradient which varied in length from 5-50 column volumes depending on the column type. After the final chromatography step, the resulting purity of the enzyme is >90% based on SDS-PAGE analysis. The enzyme was aliquoted and stored at −80° C.
Standard HCV NS5B RdRp enzyme assay. HCV RdRp genotype 1b assays were run in a final volume of 60 μl in 96 well plates (Costar 3912). The assay buffer is composed of 20 mM Hepes, pH 7.5, 2.5 mM KCl, 2.5 mM MgCl2, 1 mM DTT, 1.6 U RNAse inhibitor (Promega N2515), 0.1 mg/ml BSA (Promega R3961), and 2% glycerol. All compounds were serially diluted (3-fold) in DMSO and diluted further in water such that the final concentration of DMSO in the assay was 2%. HCV RdRp genotype 1b enzyme was used at a final concentration of 28 nM. A polyA template was used at 6 nM, and a biotinylated oligo-dT12 primer was used at 180 nM final concentration. Template was obtained commercially (Amersham 27-4110). Biotinylated primer was prepared by Sigma Genosys. 3H-UTP was used at 0.6 μCi (0.29 μM total UTP). Reactions were initiated by the addition of enzyme, incubated at 30° C. for 60 min, and stopped by adding 25 μl of 50 mM EDTA containing SPA beads (4 μg/μl, Amersham RPNQ 0007). Plates were read on a Packard Top Count NXT after >1 hr incubation at room temperature.
Modified HCV NS5B RdRp enzyme assay. A modified enzyme assay was performed essentially as described for the standard enzyme assay except for the following: The biotinylated oligo dT12 primer was precaptured on streptavidin-coated SPA beads by mixing primer and beads in assay buffer and incubating at room temperature for one hour. Unbound primer was removed after centrifugation. The primer-bound beads were resuspended in 20 mM Hepes buffer, pH 7.5 and used in the assay at final concentrations of 20 nM primer and 0.67 μg/μl beads. Order of addition in the assay: enzyme (14 nM) was added to diluted compound followed by the addition of a mixture of template (0.2 nM), 3H-UTP (0.6 μCi, 0.29 μM), and primer-bound beads, to initiate the reaction; concentrations given are final. Reactions were allowed to proceed for 4 hours at 30° C.
IC50 values for compounds were determined using seven different [I]. […]

HCV replicon = assay: HCV Replicon Luciferase Reporter Assay (LE Assay); format: cell-based, HCV genotype 1b; details: Hepatitis C virus
Procedure: (§1) The HCV replicon luciferase assay was developed to monitor the inhibitory effects of compounds described in the disclosure on HCV viral replication. Utilization of a replicon luciferase reporter assay was first described by Krieger et al (Krieger N, Lohmann V, and Bartenschlager R, J. Virol. 75(10):4614-4624 (2001)). HUH-7 cells, constitutively expressing the HCV replicon, were grown in Dulbeccors Modified Eagle Media (DMEM) (Gibco-BRL) containing 10% Fetal calf serum (FCS) (Sigma) and 1 mg/ml G418 (Gibco-BRL). Compounds were serially diluted 3 folds in DMSO for a twenty-point titration and subsequently transferred to sterile 384-well tissue-culture treated plates (Coming cat #3571). The plates were then seeded with 50 μl of cells at a density of 3.0×10^3 cells/well in DMEM containing 4% FCS (final DMSO concentration at 0.5%). After 3 days incubation at 37° C., cells were analyzed for Renilla Luciferase activity using the EnduRen as substrate (Promega cat #E6485). The EnduRen substrate was diluted in DMEM and then added to the plates to a final concentration of 7.5 μM. The plates were incubated for 2 hrs at 37° C. and then read immediately for 30 seconds with Viewlux Imager (PerkinElmer) using a luminescence program. To assess cytotoxicity of compounds, CC50 values were generated by multiplexing the EnduRen-containing plates with Cell Titer-Blue (Promega, cat #G8082). 3 μl of Cell-Titer Blue was added to each well and incubated for 8 hrs at 37° C. The fluorescence signal from each well was read, with an excitation wavelength at 525/10 nm and an emission wavelength of 598/10 nm, using the Viewlux Imager.

HCV replicon genotype 1a = assay: HCV Replicon Luciferase Reporter Assay (LE Assay), genotype 1a replicon; format: cell-based, HCV genotype 1a; details: Hepatitis C virus, read-out: LE NeoLuc EC50
Procedure: as §1

[1] = genotype 1b, Huh-7, read-out: LE NeoLuc EC50, Table 1, HUH-7 cells, genotype 1b replicon
[2] = Huh-7, Table 2, HUH-7 cells, read-out: LE NeoLuc EC50

| SMILES | IC50 (HCV NS5B; Table 1) [nM] | EC50 (HCV replicon; [1]) [nM] | EC50 (HCV replicon genotype 1a) [nM] | IC50 (HCV NS5B; Table 2) [nM] | EC50 (HCV replicon; [2]) [nM] |
| --- | --- | --- | --- | --- | --- |
| CNC(=O)N1CC23CCC2(C1)CN(C(=O)[C@]12C[C@H]1c1cc(OC)ccc1-c1c(C4CCCCC4)c4ccc(C(=O)NS(=O)(=O)C(C)C)cc4n1C2)C3 (some centres unmarked) [drawing 99] | < 1.7 | 1.9 to 500 | – | – | – |
| COc1ccc2c(c1)[C@@H]1C[C@]1(C(=O)N1CC34CCC3(CN(C(=O)N(C(C)C)C(C)C)C4)C1)Cn1c-2c(C2CCCCC2)c2ccc(C(=O)NS(=O)(=O)C(C)C)cc21 (some centres unmarked) | 1.9 to 500 | – | 1.9 to 500 | – | – |
| COc1ccc2c(c1)[C@@H]1C[C@]1(C(=O)N1CC34CCC3(CN(C)C4)C1)Cn1c-2c(C2CCCCC2)c2ccc(C(=O)NS(=O)(=O)C(C)C)cc21 (some centres unmarked) [drawing 108] | – | – | – | 3.5 | 6.96 |
| COc1ccc2c(c1)[C@@H]1C[C@]1(C(=O)N1CC34CCC3(C1)CN(C1CC1)C4)Cn1c-2c(C2CCCCC2)c2ccc(C(=O)NS(=O)(=O)N(C)C)cc21 (some centres unmarked) | – | – | 1.9 to 500 | – | – |
| COc1ccc2c(c1)[C@@H]1C[C@]1(C(=O)N1CC34COCC3(C1)CN(S(=O)(=O)C(C)C)C4)Cn1c-2c(C2CCCCC2)c2ccc(C(=O)NS(=O)(=O)N(C)C)cc21 (some centres unmarked) | < 1.7 | – | 1.9 to 500 | – | – |
| COc1ccc2c(c1)[C@@H]1C[C@]1(C(=O)N1CC34CCC3(CN(C(=O)N3CCCC3)C4)C1)Cn1c-2c(C2CCCCC2)c2ccc(C(=O)NS(=O)(=O)C(C)C)cc21 (some centres unmarked) | 1.9 to 500 | – | 1.9 to 500 | – | – |
| COc1ccc2c(c1)[C@@H]1C[C@]1(C(=O)N1CC34CCC3(C1)C[N+]([O-])(CC(F)(F)F)C4)Cn1c-2c(C2CCCCC2)c2ccc(C(=O)NS(=O)(=O)N(C)C)cc21 (some centres unmarked) | < 1.7 | – | 1.9 to 500 | – | – |
| COc1ccc2c(c1)[C@@H]1C[C@]1(C(=O)N1CC34CCC3(CN(C(=O)N3CCOCC3)C4)C1)Cn1c-2c(C2CCCCC2)c2ccc(C(=O)NS(=O)(=O)N(C)C)cc21 (some centres unmarked) | 1.9 to 500 | – | 1.9 to 500 | – | – |
| COc1ccc2c(c1)[C@@H]1C[C@]1(C(=O)N1CC34COCC3(CN(CC(F)(F)F)C4)C1)Cn1c-2c(C2CCCCC2)c2ccc(C(=O)NS(=O)(=O)N(C)C)cc21 (some centres unmarked) | 1.9 to 500 | – | 1.9 to 500 | – | – |
| COc1ccc2c(c1)[C@@H]1C[C@]1(C(=O)N1CC34COCC3(C1)CN(S(=O)(=O)C(C)C)C4)Cn1c-2c(C2CCCCC2)c2ccc(C(=O)NS(=O)(=O)C(C)C)cc21 (some centres unmarked) | 1.9 to 500 | – | 1.9 to 500 | – | – |
| COc1ccc2c(c1)[C@@H]1C[C@]1(C(=O)N1CC34CCC3(CN(C(=O)N3CCOCC3)C4)C1)Cn1c-2c(C2CCCCC2)c2ccc(C(=O)NS(=O)(=O)C(C)C)cc21 (some centres unmarked) | 1.9 to 500 | – | 1.9 to 500 | – | – |
| COc1ccc2c(c1)[C@@H]1C[C@]1(C(=O)N1CC34CCC3(C1)CN(S(=O)(=O)C(C)C)C4)Cn1c-2c(C2CCCCC2)c2ccc(C(=O)NS(=O)(=O)C(C)C)cc21 (some centres unmarked) | 1.9 to 500 | 1.9 to 500 | – | – | – |
| COc1ccc2c(c1)[C@@H]1C[C@]1(C(=O)N1CC34CCC3(CN(CC(F)(F)F)C4)C1)Cn1c-2c(C2CCCCC2)c2ccc(C(=O)NS(=O)(=O)C(C)C)cc21 (some centres unmarked) | 1.9 to 500 | – | 1.9 to 500 | – | – |
| COC(=O)N1CC23CCC2(C1)CN(C(=O)[C@]12C[C@H]1c1cc(OC)ccc1-c1c(C4CCCCC4)c4ccc(C(=O)NS(=O)(=O)C(C)C)cc4n1C2)C3 (some centres unmarked) | 1.9 to 500 | 1.9 to 500 | – | – | – |
| COc1ccc2c(c1)[C@@H]1C[C@]1(C(=O)N1CC34CCC3(CN(C(=O)N(C)C)C4)C1)Cn1c-2c(C2CCCCC2)c2ccc(C(=O)NS(=O)(=O)C(C)C)cc21 (some centres unmarked) | 1.9 to 500 | – | 1.9 to 500 | – | – |
| COc1ccc2c(c1)[C@@H]1C[C@]1(C(=O)N1CC34CCC3(CN(CC(F)(F)F)C4)C1)Cn1c-2c(C2CCCCC2)c2ccc(C(=O)NS(=O)(=O)N(C)C)cc21 (some centres unmarked) | 1.9 to 500 | 1.9 to 500 | – | – | – |
| COc1ccc2c(c1)[C@@H]1C[C@]1(C(=O)N1CC34CCCC3(CN(C)C4)C1)Cn1c-2c(C2CCCCC2)c2ccc(C(=O)NS(=O)(=O)C(C)C)cc21 (some centres unmarked) | 1.9 to 500 | 1.9 to 500 | – | – | – |
| COc1ccc2c(c1)[C@@H]1C[C@]1(C(=O)N1CC34CCC3(CN(C(=O)N(C(C)C)C(C)C)C4)C1)Cn1c-2c(C2CCCCC2)c2ccc(C(=O)NS(=O)(=O)N(C)C)cc21 (some centres unmarked) | 1.9 to 500 | – | 1.9 to 500 | – | – |
| COc1ccc2c(c1)[C@@H]1C[C@]1(C(=O)N1CC34CCC3(CN(C)C4)C1)Cn1c-2c(C2CCCCC2)c2ccc(C(=O)NS(=O)(=O)C(C)C)cc21 (some centres unmarked) [drawing 71] | 1.9 to 500 | 1.9 to 500 | – | – | – |
| COc1ccc2c(c1)[C@@H]1C[C@]1(C(=O)N1CC34CCC3(C1)CN(S(=O)(=O)C(C)C)C4)Cn1c-2c(C2CCCCC2)c2ccc(C(=O)NS(=O)(=O)N(C)C)cc21 (some centres unmarked) | 1.9 to 500 | 1.9 to 500 | – | – | – |
| CCOCCN1CC23CCC2(C1)CN(C(=O)[C@]12C[C@H]1c1cc(OC)ccc1-c1c(C4CCCCC4)c4ccc(C(=O)NS(=O)(=O)C(C)C)cc4n1C2)C3 (some centres unmarked) | – | – | 1.9 to 500 | – | – |
| COc1ccc2c(c1)[C@@H]1C[C@]1(C(=O)N1CC34CCC3(C1)N(C(C)=O)C4)Cn1c-2c(C2CCCCC2)c2ccc(C(=O)NS(=O)(=O)C(C)C)cc21 (some centres unmarked) | 1.9 to 500 | 1.9 to 500 | – | – | – |
| CNC(=O)N1CC23CCC2(C1)CN(C(=O)[C@]12C[C@H]1c1cc(OC)ccc1-c1c(C4CCCCC4)c4ccc(C(=O)NS(=O)(=O)C(C)C)cc4n1C2)C3 (some centres unmarked) [drawing 111] | – | – | – | < 1.7 | 60 |
| COc1ccc2c(c1)[C@@H]1C[C@]1(C(=O)N1CC34COCC3(CN(CC(F)(F)F)C4)C1)Cn1c-2c(C2CCCCC2)c2ccc(C(=O)NS(=O)(=O)C(C)C)cc21 (some centres unmarked) | 1.9 to 500 | – | 1.9 to 500 | – | – |
| COc1ccc2c(c1)[C@@H]1C[C@]1(C(=O)N1CC34CCC3(CN(C(=O)N3CCCC3)C4)C1)Cn1c-2c(C2CCCCC2)c2ccc(C(=O)NS(=O)(=O)N(C)C)cc21 (some centres unmarked) | 1.9 to 500 | – | 1.9 to 500 | – | – |
| COc1ccc2c(c1)C=C(C(=O)N1CC34COCC3(C1)N(C(C)=O)C4)Cn1c-2c(C2CCCCC2)c2ccc(C(=O)NS(=O)(=O)C(C)C)cc21 (centres unmarked) | 1.9 to 500 | 1.9 to 500 | – | – | – |
